Data published in article PMC9019904, “AD Informer Set: Chemical tools to facilitate Alzheimer's disease drug discovery” (Alzheimer's & Dementia : Translational Research & Clinical …, 2022).

How the values were obtained:
[1] = tested on: BV2 (mouse microglia) cell line; experiment: pHrodo-myelin phagocytosis/cell viability high content imaging assay: viability (cell count, nuclear area, nuclear intensity); conditions: 48 hours treatment
How it was run: (§1)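 Viability was read as total cell count per well by high-content imaging, with mean average nuclear intensity per cell profiling apoptosis (rise early, fall late). Compounds were given at 10 μM for 48 h, pHrodo-myelin being added for the final 20 h. Values are means of two points as % untreated control.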

[2] = tested on: HMC3 (human microglia) cell line; experiment: as above; conditions: 48 hours treatment
How it was run: as §1

[3] = tested on: BV2 (mouse microglia) cell line; experiment: pHrodo-myelin phagocytosis/cell viability high content imaging assay: phagocytosis signal; assay type: cell-based
How it was run: (§2)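 Imaging at high content captured pHrodo-myelin uptake about 22 hours after its addition, alongside a viability read-out from the same cells. Three measurements were derived, with intensity increase marking early apoptosis and decrease marking later apoptosis.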

[4] = tested on: HMC3 (human microglia) cell line; experiment: as above; assay type: cell-based
How it was run: as §2

[5] = BV2 cells, 10 uM compound, 48 hours treatment, pHrodo-myelin final 20 hours
[6] = HMC3 cells, 10 uM compound, 48 hours treatment, pHrodo-myelin final 20 hours
[7] = BV2, compound 10 uM, pHrodo-myelin
[8] = HMC3, compound 10 uM, pHrodo-myelin

SMILES	1. Cell count (% control) ([1]; BV2 cells, 10 uM compound)	2. Nuclear Area (% Control) ([1]; BV2 cells, 10 uM compound)	3. Nuclear DNA Intensity (% control) ([1]; BV2 cells, 10 uM compound)	1. Cell count (% control) ([2]; HMC3 cells, 10 uM compound)	2. Nuclear Area (% Control) ([2]; HMC3 cells, 10 uM compound)	3. Nuclear DNA Intensity (% control) ([2]; HMC3 cells, 10 uM compound)	4. Phagocytosis (% control) [3, 5]	4. Phagocytosis (% control) [4, 6]	1. Cell count (% control) ([1]; BV2, compound 10 uM)	2. Nuclear Area (% Control) ([1]; BV2, compound 10 uM)	3. Nuclear DNA Intensity (% control) ([1]; BV2, compound 10 uM)	1. Cell count (% control) ([2]; HMC3, compound 10 uM)	2. Nuclear Area (% Control) ([2]; HMC3, compound 10 uM)	3. Nuclear DNA Intensity (% control) ([2]; HMC3, compound 10 uM)	4. Phagocytosis (% control) [3, 7]	4. Phagocytosis (% control) [4, 8]
COc1cccc2c(NCc3ccccc3)nc(-n3c(N)nc4ccccc43)nc12 [UNC10302841A]	33.6 % control	129.2 % Control	62.4 % control	55.4 % control	78.1 % Control	92.0 % control	0.00115 % control	0.0406 % control								
C[C@H](NC(=O)c1sccc1OCc1ccc(Cl)cc1)c1ccccc1 [UNC10302704A]									95.5 % control	101.0 % Control	97.2 % control	112.7 % control	95.6 % Control	89.7 % control	123.4 % control	66.4 % control
CCC(=C(c1ccc(O)cc1)c1ccc(OCCN(C)C)cc1)c1ccccc1 [UNC10302895A]	114.3 % control	103.3 % Control	103.4 % control	134.2 % control	100.6 % Control	93.3 % control	182.9 % control	89.5 % control								
CCCCc1nc(Cl)c(CO)n1Cc1ccc(-c2ccccc2-c2nn[nH]n2)cc1 [UNC10121212D]	142.4 % control	103.1 % Control	105.8 % control	117.8 % control	104.2 % Control	96.6 % control	120.9 % control	86.3 % control								
Cc1cc(OCc2nnc(SC3CCCC3)n2-c2cccnc2)ccc1-c1ccc(S(C)(=O)=O)cc1 [UNC10302838A]									15.0 % control	98.1 % Control	45.6 % control	58.3 % control	51.1 % Control	240.9 % control	0.0 % control	33.5 % control
OC(c1cc(C23CC4CC(CC(C4)C2)C3)nc2c(Cl)cc(Cl)cc12)C1CCCCN1 (stereo not drawn) [UNC10302897A]	63.8 % control	105.3 % Control	99.1 % control	110.1 % control	94.7 % Control	100.9 % control	122.3 % control	67.0 % control								
CCS(=O)(=O)N1CCN(c2ccc(Nc3ncc(C(N)=O)c(NC4CC4)n3)cc2)CC1 [UNC10245084A]									6.9 % control	115.7 % Control	50.0 % control	54.5 % control	136.2 % Control	128.1 % control	2.3 % control	110.4 % control
Cc1ccc(F)c(NC(=O)Nc2ccc(-c3cccc4[nH]nc(N)c34)cc2)c1 [UNC10302874A]									24.4 % control	127.6 % Control	103.1 % control	43.1 % control	121.8 % Control	105.6 % control	235.2 % control	29.4 % control
Clc1ccc(N/N=C(\c2ccccc2)c2ccccn2)nc1 [UNC3735A]	27.9 % control	119.6 % Control	94.7 % control	86.4 % control	86.7 % Control	135.7 % control	273.4 % control	104.5 % control								
COc1nc(OCc2cccc(-c3ccccc3)c2C)ccc1CNCCNC(C)=O.Cl [UNC10302832A]	21.6 % control	92.8 % Control	35.4 % control	35.9 % control	69.0 % Control	171.8 % control	0.00132 % control	0.4 % control								
Cc1cc2c(cc1C1(c3ccc(C(=O)O)cn3)CC1)C(C)(C)CCC2(C)C [UNC10302904A]	72.5 % control	111.9 % Control	92.6 % control	110.6 % control	108.2 % Control	90.0 % control	105.9 % control	73.6 % control								
C=CC[N+]1(C2CC3C4CCC5CC(O)C(N6CCOCC6)CC5(C)C4CCC3(C)C2OC(C)=O)CCCC1.[Br-] (stereo not drawn) [UNC10302696A]									144.5 % control	102.9 % Control	102.4 % control	145.5 % control	103.7 % Control	86.9 % control	148.6 % control	62.6 % control
CN(CCOc1ccc(CC2SC(=O)NC2=O)cc1)c1ccccn1 (stereo not drawn) [UNC10121399D]	82.8 % control	102.9 % Control	100.2 % control	93.9 % control	101.5 % Control	97.8 % control	142.2 % control	81.9 % control								
COc1ccc(CCCN2CCC(COC(c3ccccc3)c3ccccc3)CC2)cc1 [UNC10303165A]									87.4 % control	108.5 % Control	107.0 % control	110.9 % control	113.8 % Control	93.8 % control	176.2 % control	43.5 % control
Cl.N=C(CCl)NCCC[C@H](NC(=O)c1ccccc1)C(N)=O [UNC10303161A]									107.1 % control	104.4 % Control	99.5 % control	164.2 % control	99.9 % Control	88.6 % control	134.6 % control	67.2 % control
